Where two headings read alike, the source gives them in different places.
Legend:
[1] = initial pKa, cited from earlier work
[2] = pH behaviour on addition of sodium hydroxide (FIG. 1); format: physicochemical; conditions: 0.2 g in 200 ml water, 0.1M sodium hydroxide added; during almost the entire addition
[3] = 1% solution in water
[4] = other suitable buffer compounds (Table 3)
[5] = buffers tested for stain inhibitor performance (Table 1)

Row | SMILES | pKa [1, 4] | pKa [1, 5] | also measured
1 | O=S(=O)(O)CCNC1CCCCC1 [CHES, 2-(cyclohexylamino) ethanesulphonic acid] | 9.5 | – | –
2 | O=S(=O)(O)CC(O)CN1CCN(CC(O)CS(=O)(=O)O)CC1 (stereo not drawn) [POPSO, piperazine-N-N′-bis (2-hydroxypropanesulphonic acid)] | 7.8 | – | –
3 | O=S(=O)(O)CCCNC(CO)(CO)CO [TAPS, N-[tris(hydroxymethyl)methyl]-3-aminopropanesulphonic acid] | – | 8.4 | –
4 | O=C(O)CNC(CO)(CO)CO [Tricine, N-[tris (hydroxymethyl)methy] glycine] | – | 8.2 | –
5 | O=C(O)CCCCC(=O)O [adipic acid] | – | – | pH during addition of alkali [2]: < 5; pH of solution [3]: 2.8
